The values below come from patent US20230064879A1, “NANODRUG PARTICLES, THE USE THEREOF, AND PREPARATION METHOD THEREOF” (NATIONAL YANG MING CHIAO TUNG UNIVERSITY, priority 2021, published 2023).

Data set [1] concerns A549 cells. The experiment in a line: Cytotoxicity test on A549 cells. Format: cell-based. The settings on record: Homo sapiens, 24 hours after drug administration. The method, then:
The amount of the cells in each test well was 100 cells. 24 hours after the drug administration, the cell counts were measured.

In data set [2] the test system is HT-29 cells. The experiment in a line: Cytotoxicity test on HT-29 cells. Format: cell-based. Conditions: Homo sapiens, 24 hours after drug applied.
Data set [3] can be described thus: In vitro release of camptothecin (dialysis bag, Korsmeyer-Peppas model). It is filed as physicochemical. The settings on record: PBS pH 7.4, 37° C., 168 hours, MWCO 2,000 Da. The method, then: The in vitro release of camptothecin under different conditions were compared; the conditions were: […] The test duration time was 168 hours, the test temperature was 37° C., and the dialysis bag with molecular weight cut-off (MWCO) of 2,000 Da was used.

Converted amounts (≈) assume the structure as drawn.

Take `CC[C@@]1(O)C(=O)OCc2c1cc1n(c2=O)Cc2cc3ccccc3nc2-1` [Camptothecin]: the IC50 amounted to 40.1 µg/mL (≈ 115 µM) in data set [1] and 52.3 µg/mL (≈ 150 µM) in data set [2]. In addition, the “K (Korsmeyer-Peppas model)” value in data set [3] turned out to be 44.25. Besides, the “n (Korsmeyer-Peppas model)” value in data set [3] came out at 0.09985.

One may read the IC50 as the concentration at which inhibition is half-maximal. A low value points to inhibition by little substance.
